Entries after “also recorded” stand apart in the source; their conditions may differ.
Legend:
[1] = test system: THP-1 macrophage-like cells; assay: IL-1beta release (ELISA) from PMA-differentiated THP-1 cells activated with LPS then ATP; assay type: cell-based, human; settings: 0.2 (0.19) to 6 millimolar; LPS 100 ng/mL 24 hours then 10 millimolar ATP 1 hour
Experimental: The human monocyte cell line THP-1 was differentiated into macrophage-like cells with PMA for 72 hours. […] Cells were then activated with 100 nanograms per milliliter lipopolysaccharide (LPS) for 24 hours followed by an additional hour with 10 millimolar adenosine triphosphate (ATP). LPS is a toll-like receptor 4 (TLR4) agonist, and ATP activates […] to promote inflammasome activity. The resulting IL-1beta release was quantified by enzyme-linked immunosorbent assay (ELISA).

[2] = test system: THP-1 macrophage-like cells; assay: Tetrazolium colorimetric cell count assay of THP-1 cultures on HA hydrogel; assay type: cell-based, human; settings: addition of decanoic acid (1 millimolar) on HA hydrogel
Experimental: A colorimetric assay confirmed that the inhibition of IL-1beta release was not caused solely by reduced cell counts. Tetrazolium colorimetric dye was added to the cultures at the end of the experiment and cell counts were measured by optical density at 490 nanometers.

[3] = test system: Human osteoarthritic chondrocytes; assay: Microscopic examination of chondrocyte spheroid morphology on HA hydrogel; assay type: cell-based
Experimental: The chondrocytes were layered on top of an HA hydrogel (SYNVISC®, Sanofi-Aventis, United States). Following 20 days, hyaluronidase was added to release the cells from the hydrogel, the cells were collected, and total RNA was isolated.
Control chondrocytes established a monolayer on the bottom surface of their culture wells (FIG. 4A).

[4] = test system: Human osteoarthritic chondrocytes; assay: Immunostaining for SOX9, Col2a1 and ACAN of osteoarthritic chondrocytes cultured 24 days on HA hydrogel; assay type: cell-based
Source text: ACAN is an articular cartilage-specific proteoglycan that is important to the proper function and the load-bearing capacity of cartilage. Data is presented as the fluorescence of photographic images captured on an epifluorescent microscope for the ACAN signal (FU) normalized to the signal of 4′,6-diamidino-2-phenylindole (DAPI) nuclear stain, designated as FU/DAPI.
The chondrocytes were layered on top of an HA hydrogel (SYNVISC®, Sanofi-Aventis, United States). Following 24 days, the cells were fixed with paraformaldehyde and immunostained for SOX9, Col2a1, and ACAN.

[5] = test system: THP-1 macrophage-like cells; assay: IL-1beta release (ELISA) from PMA-differentiated THP-1 cells stimulated with CL075 with or without ATP; assay type: cell-based, human; settings: 1 millimolar decanoic acid
Experimental: TLR7/8 agonists increase inflammasome activity and IL-1beta release through a different pathway relative to TLR4 agonists. To evaluate this response, THP-1 monocytic cells were differentiated to a macrophage-like state using PMA for 72 hours. […] To further activate the inflammasome, ATP was then added to the wells designated “second hit,” and the cultures were incubated for an additional hour. To indicated wells, hyaluronidase was added for 15 minutes, and all mediums harvested for IL-1beta ELISA quantification. Results are depicted in FIG. 7.

[6] = test system: THP-1 macrophage-like cells; assay: Colorimetric MTS cell density/viability assay, resting and activated THP-1 cultures; assay type: cell-based, human; settings: 6 millimolar decanoic acid
Experimental: Then cell density was assessed in both resting and activated cultures using a colorimetric MTS assay with optical density at 490 nanometers (FIGS. 6A & 6B).

[7] = test system: Osteoarthritic fibroblast-like chondrocytes; assay: MMP13 expression by real time RT-PCR in osteoarthritic fibroblast-like chondrocytes; assay type: cell-based; settings: 0.1 percent hyaluronic acid and/or 0.1 micromolar dexamethasone
Experimental: Osteoarthritic fibroblast-like chondrocytes were cultured for 2 to 28 days in the presence of either 0.1 percent hyaluronic acid, 0.1 micromolar dexamethasone, or both 0.1 percent hyaluronic acid and 0.1 micromolar dexamethasone. Media was exchanged every 2-3 days. Chondrocytes cultured for 2 days, 14 days, or 28 days were analyzed by real time RT-PCR to assess matrix metallopeptidase 13 (MMP13) expression.

[8] = high-density monolayers, vehicle, 0.1, 0.5 and 1 millimolar decanoic acid

CCCCCCCCCC(=O)O [decanoic acid]
inhibition of inflammasome-IL-1beta release [1]: dose-dependent inhibition of IL-1beta concentrations; also recorded: dose-dependent inhibition of inflammasome-IL-1beta release | decrease in optical density at 490 nanometers (cell counts) ([2]; CL075, absence of ATP): 18% | decrease in optical density at 490 nanometers (cell counts) ([2]; CL075, presence of ATP): 25% | spheroid morphology after 4 days of culture ([3]; 4 days on HA hydrogel, with vs without decanoic acid): the spheroids generated interconnected networks; also recorded: promoted interconnected networks of spheroids | spheroid morphology after 20 days of culture ([3]; 20 days on HA hydrogel, 1 millimolar decanoic acid vs without): increased condensation and the development of large spheroids; also recorded: large spheroid development or condensation | spheroid development or condensation ([4]; 1 millimolar decanoic acid, 24 days on HA hydrogel): enhanced spheroid development or condensation | concentration of peak Col2a1 staining ([4]; high-density monolayers): 0.5 millimolar | punctate staining for Col2a1 [4, 8]: dose-dependent punctate staining for Col2a1 | staining for aggrecan (ACAN) [4, 8]: dose-dependent increase in staining for aggrecan | nuclear staining for SOX9 ([4]; high-density monolayers, vehicle, 0.1, 0.5 and 1 millimolar decanoic acid, 24 days on HA hydrogel): enhanced nuclear staining for SOX9 in a dose-dependent manner | punctate immunostaining for Col2a1 ([4]; low-density monolayers, 1 millimolar decanoic acid): strong punctate immunostaining for Col2a1 | intracellular staining for ACAN (FU/DAPI, FIG. 1) ([4]; low-density monolayers, increasing millimolar concentrations, strongest at 1 millimolar): dose-dependent increase in aggrecan (ACAN) immunofluorescence staining; also recorded: dose-dependent intracellular staining for ACAN | ACAN immunostaining of chondrocyte spheroids ([4]; spheroids on HA hydrogels, 1 millimolar decanoic acid): strong ACAN immunostaining | decrease concentration of IL-1beta ([5]; CL075 24 hours then ATP 1 hour (second hit)): 91% | decrease concentration of IL-1beta ([5]; CL075 24 hours, absence of ATP (first hit)): 77% | cell density / viability (MTS, OD 490 nanometers) [6]: significant decrease in viability; also recorded: unfavorable effect on cell density

C[C@@H]1C[C@H]2[C@@H]3CCC4=CC(=O)C=C[C@]4(C)[C@@]3(F)[C@@H](O)C[C@]2(C)[C@@]1(O)C(=O)CO [dexamethasone]
Change in MMP13 expression at day 2 [7]: 0 | Change in MMP13 expression at day 14 [7]: −399 | Change in MMP13 expression at day 28 [7]: −4

Reference: patent publication US12661431B2, “Pharmaceutical compositions for treating osteoarthritis” (INSIGNIA PHARMACEUTICALS, LLC, priority 2023, dated 2026)
